Data from ChEMBL document CHEMBL3885881, “DrugMatrix”.

Species: Rattus norvegicus
Assay: DrugMatrix - Regimen: Daily Repeat
Type: toxicity, organism-based, Sprague-Dawley
Parameters: regimen Daily Repeat, gender Male, age 6-8 weeks
Settings: in vivo, po, route oral GAVAGE, vehicle .5 % CMC; for ABSOLUTE BASOPHIL / ABSOLUTE EOSINOPHIL / ABSOLUTE LYMPHOCYTE / ABSOLUTE MONOCYTE / ABSOLUTE SEGMENTED NEUTROPHIL / BASOPHIL / EOSINOPHIL / HEMATOCRIT / LEUKOCYTE COUNT / LYMPHOCYTE / MEAN CORPUSCULAR HEMOGLOBIN / MEAN CORPUSCULAR HEMOGLOBIN CONCENTRATION / MEAN CORPUSCULAR VOLUME / MONOCYTE / NEUTROPHIL / NUCLEATED RED BLOOD CELLS / PLATELET COUNT: tissue Blood; for ALANINE AMINOTRANSFERASE / ALBUMIN / ALKALINE PHOSPHATASE / ASPARTATE AMINOTRANSFERASE / BLOOD UREA NITROGEN / CARBON DIOXIDE / CHLORIDE / CHOLESTEROL / CREATININE / GLUCOSE / LACTATE DEHYDROGENASE / LIPASE / PHOSPHORUS / TOTAL BILIRUBIN / TOTAL PROTEIN / URIC ACID / SODIUM: tissue Plasma
[1] = 0 mg/kg, 72 h, dose level Control, time 3 day
[2] = 0 mg/kg, 120 h, dose level Control, time 5 day
[3] = 23 mg/kg, 72 h, dose level High, time 3 day

In the case of `Cc1cc2c(s1)Nc1ccccc1N=C2N1CCN(C)CC1` [OLANZAPINE], the “ABSOLUTE BASOPHIL” value [1] is reported as 0 CELLS/uL, the “ABSOLUTE EOSINOPHIL” value [1] is reported as 47.67 CELLS/uL and the “ABSOLUTE LYMPHOCYTE” value [1] is reported as 15937.67 CELLS/uL. For the same compound, the “ABSOLUTE MONOCYTE” value [1] was 138.33 CELLS/uL, the “ABSOLUTE SEGMENTED NEUTROPHIL” value [1] was 1443 CELLS/uL and the BASOPHIL [1] was 0%. For the same compound, the EOSINOPHIL [1] was 0.33%, the HEMATOCRIT [1] was 34.43% and the “LEUKOCYTE COUNT” value [1] was 17.57 x10E3/uL. The LYMPHOCYTE [1] was 90.33%, the “MEAN CORPUSCULAR HEMOGLOBIN” value [1] was 24.6 pg and the “MEAN CORPUSCULAR HEMOGLOBIN CONCENTRATION” value [1] was 38.88 G/DL. For the same compound, the “MEAN CORPUSCULAR VOLUME” value [1] was 63.27 fL, the MONOCYTE [1] was 0.83% and the NEUTROPHIL [1] was 8.5%. The “NUCLEATED RED BLOOD CELLS” value [1] was 0 /100WBC, the “PLATELET COUNT” value [1] was 1298 x10E3/uL and the “ALANINE AMINOTRANSFERASE” value [1] was 47.67 u/L. The ALBUMIN [1] was 4.18 G/DL, the “ALKALINE PHOSPHATASE” value [1] was 398.5 u/L and the “ASPARTATE AMINOTRANSFERASE” value [1] was 93.17 u/L. For the same compound, the “BLOOD UREA NITROGEN” value [1] was 16 mg/dL, the “CARBON DIOXIDE” value [1] was 29.17 mmol/L and the CHLORIDE [1] was 98.17 MEQ/L. For the same compound, the CHOLESTEROL [1] was 68.83 mg/dL, the CREATININE [1] was 0.14 mg/dL and the GLUCOSE [1] was 151.67 mg/dL. The “LACTATE DEHYDROGENASE” value [1] was 597.5 u/L, the LIPASE [1] was 9.33 u/L and the PHOSPHORUS [1] was 11.97 mg/dL. The “TOTAL BILIRUBIN” value [1] was 0.18 mg/dL, the “TOTAL PROTEIN” value [1] was 5.82 G/DL and the “URIC ACID” value [1] was 1.48 mg/dL. For the same compound, the “ABSOLUTE BASOPHIL” value [2] was 0 CELLS/uL, the “ABSOLUTE EOSINOPHIL” value [2] was 31 CELLS/uL and the “ABSOLUTE LYMPHOCYTE” value [2] was 14327.83 CELLS/uL. The “ABSOLUTE MONOCYTE” value [2] was 102.83 CELLS/uL, the “ABSOLUTE SEGMENTED NEUTROPHIL” value [2] was 1321.67 CELLS/uL and the BASOPHIL [2] was 0%. The EOSINOPHIL [2] was 0.17%, the HEMATOCRIT [2] was 36.1% and the “LEUKOCYTE COUNT” value [2] was 15.78 x10E3/uL. The LYMPHOCYTE [2] was 90.5%, the “MEAN CORPUSCULAR HEMOGLOBIN” value [2] was 24.48 pg and the “MEAN CORPUSCULAR HEMOGLOBIN CONCENTRATION” value [2] was 39.22 G/DL. For the same compound, the “MEAN CORPUSCULAR VOLUME” value [2] was 62.4 fL, the MONOCYTE [2] was 0.67% and the NEUTROPHIL [2] was 8.67%. For the same compound, the “NUCLEATED RED BLOOD CELLS” value [2] was 0.17 /100WBC, the “PLATELET COUNT” value [2] was 1211.67 x10E3/uL and the “ALANINE AMINOTRANSFERASE” value [2] was 49 u/L. For the same compound, the ALBUMIN [2] was 4.27 G/DL, the “ALKALINE PHOSPHATASE” value [2] was 356.67 u/L and the “ASPARTATE AMINOTRANSFERASE” value [2] was 90.17 u/L. For the same compound, the “BLOOD UREA NITROGEN” value [2] was 20.5 mg/dL, the “CARBON DIOXIDE” value [2] was 29.17 mmol/L and the CHLORIDE [2] was 98 MEQ/L. For the same compound, the CHOLESTEROL [2] was 69.83 mg/dL, the CREATININE [2] was 0.21 mg/dL and the GLUCOSE [2] was 149.83 mg/dL. For the same compound, the “LACTATE DEHYDROGENASE” value [2] was 322 u/L, the LIPASE [2] was 10 u/L and the PHOSPHORUS [2] was 12 mg/dL. The SODIUM [2] was 142.8 MEQ/L, the “TOTAL BILIRUBIN” value [2] was 0.17 mg/dL and the “TOTAL PROTEIN” value [2] was 6.1 G/DL. The “URIC ACID” value [2] was 1.68 mg/dL, the “ABSOLUTE BASOPHIL” value [3] was 0 CELLS/uL and the “ABSOLUTE EOSINOPHIL” value [3] was 0 CELLS/uL. The “ABSOLUTE LYMPHOCYTE” value [3] was 12570 CELLS/uL, the “ABSOLUTE MONOCYTE” value [3] was 145.67 CELLS/uL and the “ABSOLUTE SEGMENTED NEUTROPHIL” value [3] was 851 CELLS/uL. For the same compound, the BASOPHIL [3] was 0%, the EOSINOPHIL [3] was 0% and the HEMATOCRIT [3] was 37.27%. The “LEUKOCYTE COUNT” value [3] was 13.57 x10E3/uL, the LYMPHOCYTE [3] was 92.67% and the “MEAN CORPUSCULAR HEMOGLOBIN” value [3] was 24.63 pg. The “MEAN CORPUSCULAR HEMOGLOBIN CONCENTRATION” value [3] was 39.1 G/DL, the “MEAN CORPUSCULAR VOLUME” value [3] was 63 fL and the MONOCYTE [3] was 1%. The NEUTROPHIL [3] was 6.33%, the “NUCLEATED RED BLOOD CELLS” value [3] was 0 /100WBC and the “PLATELET COUNT” value [3] was 1303 x10E3/uL. For the same compound, the “ALANINE AMINOTRANSFERASE” value [3] was 52 u/L, the ALBUMIN [3] was 4.4 G/DL and the “ALKALINE PHOSPHATASE” value [3] was 415.67 u/L. The “ASPARTATE AMINOTRANSFERASE” value [3] was 84 u/L, the “BLOOD UREA NITROGEN” value [3] was 21.33 mg/dL and the “CARBON DIOXIDE” value [3] was 26.33 mmol/L. For the same compound, the CHLORIDE [3] was 102 MEQ/L, the CHOLESTEROL [3] was 86.67 mg/dL and the CREATININE [3] was 0.21 mg/dL. The GLUCOSE [3] was 155.67 mg/dL, the “LACTATE DEHYDROGENASE” value [3] was 203.33 u/L and the LIPASE [3] was 9.67 u/L. For the same compound, the PHOSPHORUS [3] was 11.47 mg/dL, the SODIUM [3] was 144.27 MEQ/L and the “TOTAL BILIRUBIN” value [3] was 0.23 mg/dL. For the same compound, the “TOTAL PROTEIN” value [3] was 5.97 G/DL and the “URIC ACID” value [3] was 1.83 mg/dL.
